The values below come from US20160214958A1, “COMPOUNDS AND USE FOR TREATING CANCER” (GLIONOVA AB, priority 2013, published 2016).

SMILES strings stand for the structures.

For assay [1], the system named is glioma stem cell line U3013. In words: In vitro cancer cell and CSC viability assay (ATP quantification, CellTiterGlo). Type of assay: cell-based, human. The settings on record: Homo sapiens; U3013, 24 hours exposure; read-out: In vitro efficacy (viability) EC50. On the procedure:
The ability of Examples S1-S23 to selectively induce cytotoxicity in glioma/glioblastoma cancer cells or glioma/glioblastoma cancer stem cells was determined by quantification of ATP production in glioma stem cell line U3013 in the presence of using CellTiterGlo reagent (Promega). Cells were exposed to compound in serial dilution in the range 1 nM to 50 µM for 24 hours and viability assessed with respect to negative control (dmso, no cell death) and positive control (staurosporine, full cell death). […] The EC50 of S10 remained largely similar at 2, 3 and 4 days of incubation. […] The individual isomers (S21-S23) of racemic S10 were evaluated in order to determine the enantiospecific pharmacology of the individual isomers.
Negative (100% DMSO) and positive (10 mM S10 in 100% DMSO) controls were placed in rows 1-4 and 5-8, respectively, of column 12. The wells were diluted with 190 μl of the corresponding growth media and 5 μl of each well of compound solution transferred to quadruplicate wells of a sterile 384-well black clear bottom plate (BD Falcon) containing GSC at 70% confluency in 45 μl growth media. The plate was incubated for 24 hours, after which the plate was removed from the incubator and each well imaged in bright-field using an Operetta Imaging system (PerkinElmer) at 37° C. and 5% CO2 to determine vacuole accumulation at each concentration. The plate was then allowed to cool to room temperature and each well treated with 25 μl freshly CellTiterGlo (Promega) reagent. The plate was shaken for 15 minutes and luminescence measured using a Victor3 (Perkin Elmer) microtiterplate reader. Total luminescence was normalized relative to control and curve fitting performed using GraphPad Prism (v6.02) software.

The next assay has as its system phospho-MKK4. In words: Western blot of GSC for phospho-MKK4. The settings on record: GSCs; remained at similar levels for at least 26 hrs. Format: cell-based, human. The source says: A genome wide screen with shRNA libraries was used to identify pathways for S10 induced macropinocytosis. The approach was based on the idea that depleting a key factor in the pathway should render GSCs refractive to S10 induced death. Three different DECIPHER pooled lentiviral shRNA libraries consisting of 82500 shRNA covering 15377 genes grouped into Human Module 1 (genes associated with various signaling pathways), Human Module 2 (disease-associated genes) and Human Module 3 (genes associated with cell surface, extracellular and DNA binding), were used to transduce U3013MG GSCs. Four days later, 14 μM S10 was added for one day after which cells were cultured in standard medium for five month. Surviving cells were thereafter dissociated and further expanded. […] Phospho-MKK4 increased within 5 min of S10 exposure and remained at similar levels for at least 26 hrs of stimulation. […]
Whole-cell extracts were prepared in SDS-buffer (25 mM Tris-HCl, pH 7.5, 1 mM EDTA, protease inhibitor cocktail (Roche), and phosphatase inhibitors [2 mM sodium orthovanadate, 20 mM beta-glycerolphosphate], and 1% SDS). The samples were analysed by western blot as described previously (Aranda et al. (2008) Mol Cell Biol, 28, 5899-5911) with the following antibodies: anti-Histone H3 (Abcam), antitrimethyl(Lys27)-Histone H3 (Millipore) and anti-phospho(S257/Thr261)-SEK1/MKK4 (R&D Systems).
(In general: Immunoblotting shows a protein as a band on a membrane.)

For the compound `OC(c1cc(-c2ccc(Cl)cc2)nc2ccccc12)C1CCCCN1` (racemic) [Compound S10, (2-(4-chlorophenyl)quinolin-4-yl)(piperidin-2-yl)methanol], the EC50 in assay [1] was 2.36 µM. Moreover, the “time to increase of Phospho-MKK4 after exposure” value with phospho-MKK4 is listed as at most 5 min.

One may read the EC50 as the midpoint of the concentration-response curve.
